ChEMBL document CHEMBL1148519, “Antitumor activity of tetrahydroisoquinoline analogues 3-epi-jorumycin and 3-epi-renieramycin G” (2006)

Assays:
[1] = tested on: HCT-116; assay: Antiproliferative activity against human HCT116 cell line; format: functional
[2] = tested on: A549; assay: Antiproliferative activity against human A549 cell line; format: functional

| GI50 [1] [nM] | GI50 [2] [nM] | SMILES |
| --- | --- | --- |
| 610 | 4640 | COC1=C(C)C(=O)C2=C(C1=O)[C@@H]1[C@H]3CC4=C(C(=O)C(OC)=C(C)C4=O)[C@H](COC(C)=O)N3[C@@H](O)[C@H](C2)N1C |
| 1.9 | 19.2 | COC1=C(C)C(=O)C2=C(C1=O)[C@@H]1[C@@H]3CC4=C(C(=O)C(OC)=C(C)C4=O)[C@H](COC(C)=O)N3[C@@H](O)[C@H](C2)N1C |
| 1400 | 10100 | C/C=C(/C)C(=O)OC[C@H]1C2=C(C[C@@H]3[C@H]4C5=C(C[C@@H](C(=O)N31)N4C)C(=O)C(C)=C(OC)C5=O)C(=O)C(C)=C(OC)C2=O [3-EPI-RENIERAMYCIN G] |
| 3870 | 12900 | C/C=C(/C)C(=O)OC[C@H]1C2=C(C[C@H]3[C@H]4C5=C(C[C@@H](C(=O)N13)N4C)C(=O)C(C)=C(OC)C5=O)C(=O)C(C)=C(OC)C2=O [(-)-RENIERAMYCIN G] |
